This note sets out measurements from BindingDB's records for doi:10.1016/j.bmcl.2005.12.051 (Procter & Gamble Pharmaceuticals, 2006).

Molecules are shown by their SMILES.

For this experiment, the target named is T1, Tyrosine-protein phosphatase non-receptor type 1 [1-298] (Homo sapiens, UniProt P18031).
T1 construct: 1-298
T1 sequence (P18031 whole entry): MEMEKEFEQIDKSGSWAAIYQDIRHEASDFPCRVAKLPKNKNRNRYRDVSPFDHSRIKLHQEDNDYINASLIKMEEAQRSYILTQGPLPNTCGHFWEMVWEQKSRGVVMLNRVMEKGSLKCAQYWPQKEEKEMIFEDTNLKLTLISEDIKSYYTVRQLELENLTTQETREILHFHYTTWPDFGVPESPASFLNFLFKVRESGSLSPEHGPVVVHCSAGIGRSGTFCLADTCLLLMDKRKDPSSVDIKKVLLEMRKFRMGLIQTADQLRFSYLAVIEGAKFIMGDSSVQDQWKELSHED
Kind of experiment: Phosphatase Inhibition Assay. The settings on record: for IC50: pH 7, 22 °C. On the procedure: The activity of PTP1B enzyme was assayed with DiFMUP as substrate. Hydrolysis of substrate was monitored on a Victor V plate reader (Wallac). Kinetic measurements were measured using 3-5 concentrations of inhibitor around the IC50 over a range of substrate concentrations (3-500 uM). Data were used to determine Km/Ki/competitive inhibition using GraphPad Prism software.

Consider `CNC(=O)[C@@H]1Cc2ccc(NS(=O)(=O)O)cc2CN1C(=O)C=Cc1coc2ccccc12` [ammonium N-[(3S)-2-[(2E)-3-(1-benzofuran-3-yl)prop-2-enoyl]-3-(methylcarbamoyl)-1,2,3,4-tetrahydroisoquinolin-7-yl]sulfamate], for which the IC50 (commonly the concentration at which inhibition is half-maximal) was 24.9 µM. On to `Cn1nc(-c2ccccc2)cc1NS(=O)(=O)O` [N-(1-methyl-3-phenyl-1H-pyrazol-5-yl)sulfamic acid], for which the Ki (as a rule, the dissociation constant of the complex between target and ligand, obtained from inhibition or displacement) was greater than 500 µM. Take `CNC(=O)[C@@H]1Cc2ccc(NS(=O)(=O)O)cc2CN1C(=O)N[C@@H](Cc1ccccc1)C(=O)OC(C)(C)C` [ammonium N-[(3S)-2-{[(2S)-1-(tert-butoxy)-1-oxo-3-phenylpropan-2-yl]carbamoyl}-3-(methylcarbamoyl)-1,2,3,4-tetrahydroisoquinolin-7-yl]sulfamate]: the IC50 is greater than 500 µM.
